According to the NIST ThermoML archive (doi:10.1021/je060178m):
Numbers after ± are expanded uncertainties.

Columns and labels:
[1] = Crystal; DTA
[2] = Molar enthalpy of transition or fusion; details: Crystal; DSC

Normal melting temperature [1]: 138.70 ± 1.1 °C
Molar enthalpy of transition or fusion [2]: 6.93 ± 0.191 kcal/mol
SMILES: NC(=O)c1ccccc1O [2-hydroxybenzamide]
